Test systems include SNB-19; HCT-15; MOLT-4; K562; SK-MEL-5; UO-31; SNB-75; NCI/ADR-RES; SF-295; T47D; SN12C; TK-10; A549; SK-OV-3; MCF7; NCI-H522; HT-29; KM12; IGROV-1.
Experiment in all cases: inhibition of tumour cell growth, NCI panel, 48 h

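Tested at 5 concentrations; 48 h exposure; 96-well plates; endpoints linearly interpolated, else capped at highest concentration. Abbreviation: GI50, concentration required for 50% inhibition of growth.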 The source made the active and inactive calls. Cut-off read from the data, not from the text of the source: active = GI50 up to about 1.1 µM and inactive = higher.

We go through eleven molecules from ChEMBL document CHEMBL1201862, “PubChem BioAssay data set” (2004).

`COc1ccc(N2C(=O)CS(=O)(=O)C2c2cccc(Oc3ccccc3)c2)cc1` (stereo unspecified): the GI50 is 5.53 µM (inactive) in the test with SNB-19; 3.33 µM in the test on HCT-15; 3.5 µM (inactive) in the test on MOLT-4; 1.71 µM (inactive) in the test with K562; 4.57 µM (inactive) in the test with SK-MEL-5; 7.18 µM (inactive) in the test with UO-31. Besides, the GI50 in the test with SNB-75 was 4.28 µM (inactive); in the test on NCI/ADR-RES it was 2.89 µM (inactive); in the test on SF-295, 3.94 µM (inactive); with T47D, 7.45 µM (inactive); in the test on SN12C, 4.65 µM (inactive); in the test on TK-10 it was 2.65 µM (inactive). Further, the GI50 in the test with A549 was 6.58 µM (inactive); in the test with SK-OV-3, 4.38 µM (inactive); in the test on MCF7 it was 1.87 µM (inactive); in the test on NCI-H522, 2.62 µM (inactive); in the test with HT-29, 3.68 µM (inactive); in the test on KM12, 4.4 µM (inactive).

Turning to `N#CCCN(CCCN(C(=O)Nc1ccc(NC(=O)N(CCCN(CCC#N)C(N)=O)c2ccccc2)cc1)c1ccccc1)C(N)=O`, the GI50 with SNB-19 is > 100 µM (inactive); in the test with HCT-15, greater than 100 µM; in the test on MOLT-4, > 100 µM (inactive); in the test with K562, > 100 µM (inactive); in the test on SK-MEL-5, > 100 µM (inactive); with UO-31, > 100 µM (inactive). For the same molecule, the GI50 was 67.5 µM (inactive) in the test on SNB-75; > 100 µM (inactive) with NCI/ADR-RES; > 100 µM (inactive) with SF-295; > 100 µM (inactive) in the test with T47D; > 100 µM (inactive) in the test with TK-10; > 100 µM (inactive) in the test on A549. For the same molecule, the GI50 was > 100 µM (inactive) in the test with SK-OV-3; 4.72 µM (inactive) in the test on MCF7; > 100 µM (inactive) in the test on NCI-H522; > 100 µM (inactive) in the test on HT-29; > 100 µM (inactive) with KM12.

Consider `O=C(O)C1C(C(=O)O)C(C(=O)O)C1C(=O)O` (stereo unspecified), for which the GI50 in the test with SNB-19 is > 100 µM (inactive); with HCT-15 it was greater than 100 µM; with MOLT-4 it was > 100 µM (inactive); in the test on IGROV-1, > 100 µM (inactive); with K562, > 100 µM (inactive); in the test with SK-MEL-5, > 100 µM (inactive). Further, the GI50 in the test on UO-31, in the test on SNB-75, with NCI/ADR-RES, in the test with SF-295, with T47D and in the test on SN12C was > 100 µM (inactive) throughout. The GI50 in the test with TK-10, in the test with A549, with SK-OV-3, in the test with MCF7, with NCI-H522 and in the test with HT-29 was > 100 µM (inactive) in each case. The GI50 in the test with KM12 was > 100 µM (inactive).

For the molecule `CSc1nc(C)cc(Nc2ccc(O)c(CN3CCOCC3)c2)n1`, the GI50 was > 100 µM (inactive) in the test on SNB-19; greater than 100 µM in the test on HCT-15; 53.6 µM (inactive) in the test on MOLT-4; > 100 µM (inactive) in the test on IGROV-1; > 100 µM (inactive) in the test on K562; 65 µM (inactive) in the test on SK-MEL-5. For the same molecule, the GI50 in the test on UO-31 was 71 µM (inactive); in the test with SNB-75, > 100 µM (inactive); in the test on NCI/ADR-RES, > 100 µM (inactive); with SF-295 it was > 100 µM (inactive); in the test on T47D, 71.9 µM (inactive); in the test with SN12C, > 100 µM (inactive). Further, the GI50 with TK-10 was > 100 µM (inactive); in the test on A549, > 100 µM (inactive); in the test with SK-OV-3, > 100 µM (inactive); in the test with MCF7 it was > 100 µM (inactive); in the test with NCI-H522 it was > 100 µM (inactive); in the test with HT-29 it was 76.9 µM (inactive). Moreover, the GI50 with KM12 is > 100 µM (inactive).

In the case of `N=C(N)NS(=O)(=O)c1ccc(/N=N/c2c(O)c(C(=O)O)cc3ccccc23)cc1`, the GI50 in the test on HCT-15 is greater than 100 µM; in the test on MOLT-4, > 100 µM (inactive); with IGROV-1, > 100 µM (inactive); in the test with K562 it was > 100 µM (inactive); with SK-MEL-5 it was > 100 µM (inactive); with UO-31 it was > 100 µM (inactive). In addition, the GI50 in the test with SNB-75, in the test on NCI/ADR-RES, with SF-295, in the test with T47D, with SN12C and in the test with TK-10 was > 100 µM (inactive) each time. For the same molecule, the GI50 in the test with A549, with SK-OV-3, with MCF7, in the test with NCI-H522, in the test with HT-29 and with KM12 was > 100 µM (inactive) in each case.

For the molecule `Cn1c(=O)cc(NCc2ccc(Cl)cc2)[nH]c1=O`, the GI50 in the test with SNB-19 is 43.3 µM (inactive); in the test with HCT-15, greater than 100 µM; in the test with IGROV-1, > 100 µM (inactive); in the test on K562, > 100 µM (inactive); in the test on SK-MEL-5, > 100 µM (inactive); with UO-31 it was 51.5 µM (inactive). In addition, the GI50 was 24 µM (inactive) in the test on SNB-75; 72.9 µM (inactive) in the test with NCI/ADR-RES; 30.3 µM (inactive) in the test with SF-295; 91.2 µM (inactive) in the test on T47D; > 100 µM (inactive) with SN12C; 21.5 µM (inactive) in the test with TK-10. Moreover, the GI50 with A549 was > 100 µM (inactive); with SK-OV-3, > 100 µM (inactive); in the test on MCF7, 31.9 µM (inactive); in the test on NCI-H522, 34.4 µM (inactive); in the test on HT-29 it was > 100 µM (inactive); in the test on KM12 it was > 100 µM (inactive).

In the case of `CSc1nc(SC)c2c(C)cn(Cc3ccccc3)c2n1`, the GI50 is > 100 µM (inactive) with SNB-19; 70.1 µM with HCT-15; 39 µM (inactive) with MOLT-4; > 100 µM (inactive) in the test on IGROV-1; > 100 µM (inactive) in the test on SK-MEL-5; 56.8 µM (inactive) with UO-31. Also, the GI50 was 79.6 µM (inactive) in the test on SNB-75; > 100 µM (inactive) in the test on NCI/ADR-RES; > 100 µM (inactive) with SF-295; 33.9 µM (inactive) in the test on T47D; > 100 µM (inactive) in the test on SN12C; > 100 µM (inactive) with TK-10. Also, the GI50 is > 100 µM (inactive) with A549; > 100 µM (inactive) with SK-OV-3; 45.4 µM (inactive) with MCF7; 98.4 µM (inactive) in the test on NCI-H522; 41.7 µM (inactive) in the test on HT-29; > 100 µM (inactive) in the test with KM12.

In the case of `Cc1ccc(Nc2nc3[nH]ccc3c(=O)[nH]2)cc1`, the GI50 is 96.2 µM (inactive) in the test with SNB-19; 87.5 µM in the test on HCT-15; 39.7 µM (inactive) in the test on MOLT-4; > 100 µM (inactive) in the test with IGROV-1; > 100 µM (inactive) in the test on K562; > 100 µM (inactive) in the test on SK-MEL-5. The GI50 is 57.3 µM (inactive) in the test on UO-31; 2.24 µM (inactive) in the test with SNB-75; > 100 µM (inactive) with NCI/ADR-RES; 72.9 µM (inactive) in the test on SF-295; 56.1 µM (inactive) in the test on T47D; > 100 µM (inactive) with SN12C. The GI50 in the test on TK-10 is 95.7 µM (inactive); in the test with A549, 66.1 µM (inactive); in the test on SK-OV-3 it was > 100 µM (inactive); in the test with MCF7, > 100 µM (inactive); in the test on NCI-H522 it was > 100 µM (inactive); in the test with HT-29, 61.9 µM (inactive). Moreover, the GI50 in the test with KM12 is > 100 µM (inactive).

On to `CN(C)CCNC(=O)C(C)(C)Oc1ccc(C(=O)c2ccc(Cl)cc2)cc1Cl`, for which the GI50 with SNB-19 was 13 µM (inactive); with HCT-15, 3.3 µM; with MOLT-4, 12 µM (inactive); with IGROV-1, 11.9 µM (inactive); in the test on SK-MEL-5 it was 2.25 µM (inactive); in the test with UO-31 it was 9.59 µM (inactive). The GI50 is 11.5 µM (inactive) in the test with SNB-75; 12.5 µM (inactive) in the test with NCI/ADR-RES; 10.6 µM (inactive) in the test with SF-295; 10.4 µM (inactive) in the test with T47D; 13.4 µM (inactive) in the test with SN12C; 11.4 µM (inactive) in the test with TK-10. The GI50 in the test on A549 was 9.18 µM (inactive); in the test on SK-OV-3, 15.9 µM (inactive); with MCF7 it was 8.34 µM (inactive); with NCI-H522, 15 µM (inactive); in the test with HT-29, 2.56 µM (inactive); with KM12, 8.93 µM (inactive).

For `COC(OC)C1OCC(n2cc(F)c(=O)[nH]c2=O)C1O` (stereo unspecified), the GI50 in the test on SNB-19 is > 100 µM (inactive); in the test with HCT-15, greater than 100 µM; with MOLT-4, > 100 µM (inactive); with IGROV-1, > 100 µM (inactive); in the test with K562, > 100 µM (inactive); in the test on SK-MEL-5, > 100 µM (inactive). Also, the GI50 with UO-31, in the test on SNB-75, in the test with NCI/ADR-RES, in the test on SF-295, in the test with T47D and in the test with SN12C was > 100 µM (inactive) throughout. In addition, the GI50 in the test with TK-10, with A549, in the test on SK-OV-3, in the test with MCF7, with NCI-H522 and in the test on HT-29 was > 100 µM (inactive) in each case. Moreover, in the test with KM12, the GI50 was > 100 µM (inactive).

As to `COc1cccc(/C=C2\N=C(c3ccccc3)OC2=O)c1`, the GI50 is 35.1 µM (inactive) with SNB-19; 34 µM in the test with HCT-15; 34.1 µM (inactive) with IGROV-1; 71.1 µM (inactive) in the test on K562; 50.5 µM (inactive) in the test on SK-MEL-5; > 100 µM (inactive) in the test on UO-31. Further, the GI50 was 16.1 µM (inactive) with SNB-75; 25.8 µM (inactive) in the test on NCI/ADR-RES; > 100 µM (inactive) with SF-295; > 100 µM (inactive) in the test with T47D; 65.2 µM (inactive) in the test on SN12C; > 100 µM (inactive) in the test on TK-10. The GI50 in the test with A549 was > 100 µM (inactive); with SK-OV-3, > 100 µM (inactive); in the test with MCF7 it was > 100 µM (inactive); with NCI-H522, 12.3 µM (inactive); in the test on HT-29, > 100 µM (inactive); in the test with KM12 it was 73.5 µM (inactive).
